One assay concerns the target T1, wildtype LcαE7 (Lucilia cuprina, UniProt Q25252).
T1 sequence (Q25252 1-570): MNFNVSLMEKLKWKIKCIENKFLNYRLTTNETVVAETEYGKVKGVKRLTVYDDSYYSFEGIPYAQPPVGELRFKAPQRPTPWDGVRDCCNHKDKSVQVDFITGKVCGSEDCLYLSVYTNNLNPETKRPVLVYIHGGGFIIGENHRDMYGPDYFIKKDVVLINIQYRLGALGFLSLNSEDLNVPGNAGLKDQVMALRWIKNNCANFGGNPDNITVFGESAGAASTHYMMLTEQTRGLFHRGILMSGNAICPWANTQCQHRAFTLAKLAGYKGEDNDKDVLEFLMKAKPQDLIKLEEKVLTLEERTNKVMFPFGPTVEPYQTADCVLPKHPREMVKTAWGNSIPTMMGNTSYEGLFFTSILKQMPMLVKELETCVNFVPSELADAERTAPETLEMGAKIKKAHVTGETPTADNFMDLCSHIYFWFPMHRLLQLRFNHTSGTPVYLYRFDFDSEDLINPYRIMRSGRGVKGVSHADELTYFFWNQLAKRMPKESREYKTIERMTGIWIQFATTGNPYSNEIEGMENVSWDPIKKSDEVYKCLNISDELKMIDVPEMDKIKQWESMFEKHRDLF
Kind of assay: Enzyme inhibition assay with 4-nitrophenol butyrate, wild-type. It is filed as biochemical. How it is done:
Wild-type LcαE7 was heterologously expressed in Escherichia coli and purified using metal ion affinity and size exclusion chromatography. The potency of the boronic acids was determined by enzymatic assays of recombinant LcαE7 with the model carboxylester substrate 4-nitrophenol butyrate.
Inhibition of wild-type αE7 and the Gly137Asp αE7 variant was determined by a competition assay between the native-substrate analogue 4-nitrophenol butyrate (Sigma) and the boronic acid compounds. Initially, the Michalis constant (KM) with 4-nitrophenol butyrate was measured for both enzymes to determine an appropriate concentration of substrate for use in the competition assays. Formation of the 4-nitrophenolate product of hydrolysis was monitored at 405 nm in the presence of enzyme and eight different concentrations of substrate. 4-nitrophenol butyrate was prepared in methanol to 100 mM and serially diluted 1-in-2 to achieve concentrations from 100 mM to 0.8 mM. Enzyme stocks were prepared in 4 mg/ml bovine serum albumin (Sigma) to maintain enzyme stability. Reactions were prepared by pipetting 178 μl assay buffer (100 mM NaCl, 20 mM HEPES pH 7.5) and 2 μl substrate (final concentrations of 1000 to 8 μM) into 300 μl wells of a 96-well plate. The reaction was initiated by the addition of 20 μl enzyme (final concentration 2.5 nM for wildtype αE7 and 4 nM for Gly137Asp αE7). Product formation was monitored for four minutes at room temperature using an Epoch microplate spectrophotometer (BioTek) and the initial rates of ester hydrolysis were determined by linear regression using GraphPad Prism. The Michalis constant was determined by fitting the initial rates to the Michalis-Menton equation (FIG. 10).
Enzyme inhibition with the boronic acid compounds was determined by assaying the initial rate of 4-nitrophenol butyrate hydrolysis in the presence of either neat DMSO or the boronic acid compounds in DMSO. Compounds were prepared by serially diluting 1-in-3 an initial 10 mM stock to achieve concentrations from 10 mM to 2 nM. Reactions were prepared by pipetting 178 μl assay buffer supplemented with substrate to a final concentration equal to the KM of the enzyme (15 μM for wildtype αE7 and 250 μM for Gly137Asp αE7) into wells of a 96-well plate. 2 μl neat DMSO or 2 μl serially diluted inhibitor (final concentrations of 100 μM to 20 pM) were added to the wells. The reaction was initiated by the addition of 20 μl enzyme (final concentration 0.5 nM for wildtype αE7 and 10 nM for Glyl37Asp αE7). Product formation was monitored for four minutes at room temperature and the initial rates of ester hydrolysis were determined by linear regression. To determine the concentration of boronic acid compounds required to inhibit 50% of esterase activity (IC50), a four-parameter sigmoidal dose-response curve was fitted to percentage inhibition using GraphPad Prism (FIGS. 7 and 8). Ki values were determined using the Cheng-Prusoff equation assuming competitive inhibition (Yung-Chi, C. & Prusoff W. H. Relationship between the inhibition constant (KI) and the concentration of inhibitor which causes 50 percent inhibition (150) of an enzymatic reaction. Biochem. Pharmacol. 22, 3099-3108 (1973)).

The next assay has as its system Hela. Kind of assay: Cell toxicity panel, viability (luminescence). The class given is cell-based, human. To be noted: Readout: Luminescence, read-out: IC50 Viability Cells, Cell line: Hela. Here is the method:
(§1) To further establish the safety and cell toxicity of compounds according to this invention, their IC50 in killing a broad panel of human cell lines (including both cancerous and non-cancerous) cell lines was determined, and their cell toxicity was tested.

In another assay the test system is Colo205. The assay is described as follows: Cell toxicity panel, viability (luminescence). The class given is cell-based, human. The following applies: Readout: Luminescence, read-out: IC50 Viability Cells, Cell line: Colo205. Here is the method: as §1
A further assay deals with HCT116. Kind of assay: Cell toxicity panel, viability (luminescence). The following applies: Readout: Luminescence, read-out: IC50 Viability Cells, Cell line: HCT116. It is filed as cell-based, human. How it is done:
as §1

A further assay concerns HT29. The assay is described as follows: Cell toxicity panel, viability (luminescence). To be noted: Readout: Luminescence, read-out: IC50 Viability Cells, Cell line: HT29. The class given is cell-based, human. How it is done:
as §1

Another assay relates to H23. The assay is described as follows: Cell toxicity panel, viability (luminescence). The class given is cell-based, human. The following applies: Readout: Luminescence, read-out: IC50 Viability Cells, Cell line: H23. Here is the method: as §1
The next assay relates to PC3. Kind of assay: Cell toxicity panel, viability (luminescence). It is filed as cell-based, human. The following applies: Readout: Luminescence, read-out: IC50 Viability Cells, Cell line: PC3. How it is done: as §1

Each structure is given as a SMILES string. Like-named read-outs stand apart in the source and are kept apart here.

`OB(O)c1ccc(OCc2ccccc2F)c(Cl)c1` [Compound 5, 3-Chloro-4(2′-fluorobenzyloxy) phenylboronic acid] had a Ki at wildtype LcαE7 of 0.011 µM. For the same compound, the IC50 is 4.8 µM in the assay on Hela (Homo sapiens, HeLa); 79.4 µM in the assay with Colo205 (Homo sapiens, COLO 205); 88.5 µM in the assay on HCT116 (Homo sapiens, HCT-116); 62.4 µM in the assay on HT29 (Homo sapiens, HT-29); 92.7 µM in the assay on H23 (Homo sapiens, NCI-H23); 83.7 µM in the assay with PC3 (Homo sapiens, PC-3).

Compound `OB(O)c1cc(Br)cc(N2CCCC2)c1` [Compound 3] had a Ki at wildtype LcαE7 of 0.00025 µM. Besides, the IC50 in the assay on Hela (Homo sapiens, HeLa) is 8.1 µM; with Colo205 (Homo sapiens, COLO 205) it was above 99.8 µM; in the assay on HCT116 (Homo sapiens, HCT-116) it was above 99.8 µM; with HT29 (Homo sapiens, HT-29) it was above 99.8 µM; in the assay with H23 (Homo sapiens, NCI-H23), above 99.8 µM; with PC3 (Homo sapiens, PC-3), above 99.8 µM.

In turn, `OB(O)c1ccccc1` [PBA, phenylboronic acid, reference compound] yielded a Ki at wildtype LcαE7 of 0.21 µM.

For `Cc1ccc(B(O)O)cc1Br` [Compound 1], on wildtype LcαE7, the Ki turned out to be 0.012 µM. Further, the IC50 is 37.9 µM in the assay on Hela (Homo sapiens, HeLa); above 99.8 µM in the assay with Colo205 (Homo sapiens, COLO 205); above 99.8 µM with HCT116 (Homo sapiens, HCT-116); above 99.8 µM with HT29 (Homo sapiens, HT-29); above 99.8 µM with H23 (Homo sapiens, NCI-H23); above 99.8 µM with PC3 (Homo sapiens, PC-3).

As for `OB(O)c1cc(Br)cc(OCc2ccccc2)c1` [Compound 3.9], at wildtype LcαE7, the affinity, expressed as Ki, was 0.00044 µM. For the same compound, the 50% inhibitory concentration (IC50) in the assay on Hela (Homo sapiens, HeLa) is 2.1 µM; in the assay with Colo205 (Homo sapiens, COLO 205), above 99.8 µM; in the assay with HCT116 (Homo sapiens, HCT-116), above 99.8 µM; in the assay on HT29 (Homo sapiens, HT-29) it was 72.8 µM; with H23 (Homo sapiens, NCI-H23) it was 99.3 µM; in the assay on PC3 (Homo sapiens, PC-3), above 99.8 µM.

The compound `OB(O)c1cc(Br)cc2c1OCC2` [Compound 3.5] returned a Ki on wildtype LcαE7 of 0.0034 µM.

For the compound `CN1CCN(c2cc(Br)cc(B(O)O)c2)CC1` [Compound 3.4], at wildtype LcαE7, the Ki was found to be 0.0038 µM.

In turn, `OB(O)c1cc(Br)cc(N2CCCCC2)c1` [Compound 3.3] registered a Ki at wildtype LcαE7 of 0.00047 µM.

Consider `Cc1ccc(B(O)O)cc1OCc1ccccc1` [Compound 2], for which, on wildtype LcαE7, the affinity corresponds to a Ki of 0.0029 µM. The IC50 in the assay on Hela (Homo sapiens, HeLa) is 4 µM; with Colo205 (Homo sapiens, COLO 205), 91.5 µM; in the assay with HCT116 (Homo sapiens, HCT-116), 62.8 µM; with HT29 (Homo sapiens, HT-29) it was 34.1 µM; in the assay on H23 (Homo sapiens, NCI-H23) it was above 99.8 µM; with PC3 (Homo sapiens, PC-3), 49.1 µM.

On to `CC(C)(C)Oc1ccc(B(O)O)cc1Br` [Compound 3.12], for which affinity at wildtype LcαE7 was put at a Ki of 0.012 µM.

On wildtype LcαE7, `CC(C)Oc1cc(Br)cc(B(O)O)c1` [Compound 3.7, 3-Bromo-5-isopropoxyphenylboronic acid] came in with a Ki of 0.0003 µM.

Take `O=C(c1cc(Cl)cc(B(O)O)c1)N1CCOCC1` [Compound 3.11]: at wildtype LcαE7, affinity was put at a Ki of 0.0058 µM.

In the case of `OB(O)c1cc(Br)cc(N2CCOCC2)c1` [Compound 3.1], the Ki on wildtype LcαE7 (Cheng-Prusoff from dose-response, 4-nitrophenol butyrate, read-out: Ki wildtype LcαE7) is 0.0007 µM. Further, the IC50 in the assay on Hela, in the assay on Colo205, with HCT116, in the assay with HT29, in the assay on H23 and in the assay on PC3 was above 99.8 µM each time.

Turning to `OB(O)c1cc(Br)cc(OC(F)(F)F)c1` [Compound 3.8], affinity at wildtype LcαE7 was put at a Ki of 0.002 µM.

In turn, `OB(O)c1cc(Br)cc(Oc2ccccc2)c1` [Compound 3.10, 3-Bromo-5-phenoxyfenylboronic acid] gave an inhibitory constant (Ki) at wildtype LcαE7 of 0.00044 µM.

On wildtype LcαE7, `OB(O)c1ccc2ccccc2c1` [Compound 4] returned a Ki of 0.0072 µM. Moreover, the concentration for half-maximal inhibition (IC50) was 32.7 µM in the assay with Hela (Homo sapiens, HeLa); above 99.8 µM in the assay with Colo205 (Homo sapiens, COLO 205); above 99.8 µM in the assay with HCT116 (Homo sapiens, HCT-116); above 99.8 µM with HT29 (Homo sapiens, HT-29); above 99.8 µM with PC3 (Homo sapiens, PC-3).

For `OB(O)c1cc(Br)c2ccccc2c1F` [Compound 3.6], on wildtype LcαE7, the Ki is 0.006 µM.

The Ki is a measure of affinity in units of concentration, obtained from inhibition or displacement. As usually defined, the IC50 is the concentration needed to halve the response being measured.

The values above are taken from patent US20190327974A1, “SYNERGISTS FOR IMPROVED PESTICIDES” (priority 2017, published 2019).
